Earlier results on one substance are cited in patent publication US20240082296A1, “TREATMENT OF MUSCLE ATROPHY USING DEXTRAN SULFATE” (TX MEDIC AB, priority 2020, published 2024).

This data set concerns mouse model of muscle atrophy. The settings on record: after 2 weeks of treatment; cited from earlier work.

“recombinant HGF: recombinant hepatocyte growth factor, a naturally occurring neuroprotective and myogenic growth factor”: the “increase in muscle mass” value is 18%.
